Source: patent US10457710B2, “Antimicrobial peptides, their variants and uses” (priority 2015, dated 2019)
Where a SMILES comes first, the peptide text is derived from it. [ ]: non-standard residue; d: D form.

Key:
Type in all cases: cell-based
C. quillermondiae = assay: MIC, clinical yeast strains; design: Minimum inhibitory concentration: unit: μg/ml; details: C. quillermondiae clinical yeast strain 1
Description: (§1) Minimum inhibition concetrations (MICs) were determined against Escherichia coli (ATCC 25922), Staphylococcus aureus (ATCC 25923), Klebsiella pneumoniae (ATCC 10031) and Pseudomonas aeruginosa (ATCC 27853). Also clinical strains of E. coli, K. pneumoniae, E. cloacae, P. aeruginosa, Serratia marcescens, Proteus mirabilis, S. pneumoniae, Acinetobacter baumannii, A. johnsonii and S. aureus were used for MICs assays. Additionally, clinical strains of yeast including Candida albicans, C. glabrata, C. parapsilosis and C. quillermondiae were used. The susceptibility of these microorganisms to Chain peptides were determined using micro broth dilution assay. Colonies of the respective microorganism from Muller Hinton (MH) agar plates incubated overnight were suspended in MH broth media and final concentration of microorganism was adjusted to 5.0×10^5 cfu/ml. An aliquot of 10 μl of each Chain peptide, or gentamicin, tetracycline as reference antibiotics were added in differing concentrations along with 90 μl of bacterial suspension to 96 well polypropylene plates and incubated at 37° C. for 20 to 24 hours. Concentrations of Chain peptides and reference antibiotics ranged from 0.125 to 128 μg/ml and the MICs were recorded as the lowest concentration with no visual growth of bacteria. Similarly, antifungal MICs were tested in Potato dextrose broth.
(§2) Clinical strains of yeasts including Candida albicans, C. glabrata, C. parapsilosis and C. quillermondiae were also tested with the 12 Chain peptides. The minimum inhibitory concentration (MICs) varied between these peptides and are presented in Tables 4a, 4b, 4c and 5a, 5b, 5c. Peptides Chain 105, 201 and 308 are broad spectrum antimicrobials with MICs between 0.5-32 μg/ml against all the bacteria and yeasts tested, except Serratia marcescens and Proteus mirabilis, against which the MICs were between 64-128 μg/ml. Peptide Chain 306 has narrow spectrum activity against E. coli at 1 μg/ml and for the rest of the bacterial strains at >32 μg/ml (FIG. 10c).

[1] = test system: clinical strains of K. pneumoniae; assay: MIC, microdilution, clinical strains; details: 0.02% BSA, 0.2% acetic acid
Description: as §1, §2

[2] = test system: clinical strains of Serratia marcescens; assay: MIC, microdilution, clinical strains; details: 0.02% BSA, 0.2% acetic acid
Description: as §1, §2

[3] = test system: clinical strains of Proteus mirabilis; assay: MIC, microdilution, clinical strains; details: 0.02% BSA, 0.2% acetic acid
Description: as §1, §2

[4] = test system: clinical strains of S. pneumoniae; assay: MIC, microdilution, clinical strains; details: 0.02% BSA, 0.2% acetic acid
Description: as §1, §2

[5] = test system: clinical strains of S. aureus; assay: MIC, microdilution, clinical strains; details: 0.02% BSA, 0.2% acetic acid
Description: as §1, §2

[6] = test system: clinical strains of E. coli; assay: MIC, microdilution, clinical strains; details: microdilution, Muller Hinton broth-cation adjusted, 0.02% BSA, 0.2% acetic acid
Description: as §1, §2

[7] = test system: clinical strains of E. cloacae; assay: MIC, microdilution, clinical strains; details: 0.02% BSA, 0.2% acetic acid
Description: as §1, §2

[8] = test system: clinical strains of P. aeruginosa; assay: MIC, microdilution, clinical strains; details: 0.02% BSA, 0.2% acetic acid
Description: as §1, §2

Candida albicans = assay: MIC, clinical yeast strains
Description: as §1, §2

C. glabrata = assay: MIC, clinical yeast strains
Description: as §1, §2

C. parapsilosis = assay: MIC, clinical yeast strains
Description: as §1, §2

[9] = Klebsiella pneumoniae strain 1, Muller Hinton broth-cation adjusted
[10] = Klebsiella pneumoniae strain 2, Muller Hinton broth-cation adjusted
[11] = Klebsiella pneumoniae strain 3, Muller Hinton broth-cation adjusted
[12] = Klebsiella pneumoniae strain 4, Muller Hinton broth-cation adjusted
[13] = Klebsiella pneumoniae strain 5, Muller Hinton broth-cation adjusted
[14] = Serratia marcescens strain 1, Muller Hinton broth-cation adjusted
[15] = Serratia marcescens strain 2, Muller Hinton broth-cation adjusted
[16] = Serratia marcescens strain 3, Muller Hinton broth-cation adjusted
[17] = Serratia marcescens strain 4, Muller Hinton broth-cation adjusted
[18] = Serratia marcescens strain 5, Muller Hinton broth-cation adjusted
[19] = Proteus mirabilis strain 1, Muller Hinton broth-cation adjusted
[20] = Proteus mirabilis strain 2, Muller Hinton broth-cation adjusted
[21] = Proteus mirabilis strain 3, Muller Hinton broth-cation adjusted
[22] = Proteus mirabilis strain 4, Muller Hinton broth-cation adjusted
[23] = Proteus mirabilis strain 5, Muller Hinton broth-cation adjusted
[24] = Streptococcus pneumoniae strain 1, Muller Hinton broth-cation adjusted
[25] = Streptococcus pneumoniae strain 2, Muller Hinton broth-cation adjusted
[26] = Streptococcus pneumoniae strain 3, Muller Hinton broth-cation adjusted
[27] = Streptococcus pneumoniae strain 4, Muller Hinton broth-cation adjusted
[28] = Streptococcus pneumoniae strain 5, Muller Hinton broth-cation adjusted
[29] = Staphylococcus aureus strain 1, Muller Hinton broth-cation adjusted
[30] = Staphylococcus aureus strain 2, Muller Hinton broth-cation adjusted
[31] = Staphylococcus aureus strain 3, Muller Hinton broth-cation adjusted
[32] = Staphylococcus aureus strain 4, Muller Hinton broth-cation adjusted
[33] = Staphylococcus aureus strain 5, Muller Hinton broth-cation adjusted
[34] = Enterobacter cloacae strain 1, Muller Hinton broth-cation adjusted
[35] = Enterobacter cloacae strain 2, Muller Hinton broth-cation adjusted
[36] = Enterobacter cloacae strain 3, Muller Hinton broth-cation adjusted
[37] = Enterobacter cloacae strain 4, Muller Hinton broth-cation adjusted
[38] = Enterobacter cloacae strain 5, Muller Hinton broth-cation adjusted
[39] = Pseudomonas aeruginosa strain 1, Muller Hinton broth-cation adjusted
[40] = Pseudomonas aeruginosa strain 2, Muller Hinton broth-cation adjusted
[41] = Pseudomonas aeruginosa strain 3, Muller Hinton broth-cation adjusted
[42] = Pseudomonas aeruginosa strain 4, Muller Hinton broth-cation adjusted
[43] = Pseudomonas aeruginosa strain 5, Muller Hinton broth-cation adjusted
[44] = Candida albicans clinical yeast strain 1
[45] = Candida albicans clinical yeast strain 2
[46] = Candida albicans clinical yeast strain 3
[47] = Candida albicans clinical yeast strain 4
[48] = Candida albicans clinical yeast strain 5
[49] = C. glabrata clinical yeast strain 1
[50] = C. glabrata clinical yeast strain 2
[51] = C. glabrata clinical yeast strain 3
[52] = C. glabrata clinical yeast strain 4
[53] = C. parapsilosis clinical yeast strain 1
[54] = C. parapsilosis clinical yeast strain 2
[55] = C. parapsilosis clinical yeast strain 3
[56] = C. parapsilosis clinical yeast strain 4

CC[C@@H](C)[C@@H](N)C(=O)N[C@H](Cc1c[nH]c2ccccc12)C(=O)N[C@H](CCCCN)C(=O)N[C@H](CCCNC(=N)N)C(=O)N[C@H](Cc1ccccc1)C(=O)N[C@H](CCCNC(=N)N)C(=O)N[C@H](CC(C)C)C(=O)N[C@H](Cc1ccccc1)C(=O)N[C@H](CCCCN)C(=O)N[C@H](CCCCN)C(=O)N[C@H](Cc1c[nH]c2ccccc12)C(=O)O [Chain304D] (H-[dI][dW][dK][dR][dF][dR][dL][dF][dK][dK][dW]-OH)
Minimum inhibitory concentration (C. quillermondiae): 16
Minimum inhibitory concentration [1, 9]: >128
Minimum inhibitory concentration [1, 10]: >128
Minimum inhibitory concentration [1, 11]: >128
Minimum inhibitory concentration [1, 12]: >128
Minimum inhibitory concentration [1, 13]: 64
Minimum inhibitory concentration [2, 14]: >128
Minimum inhibitory concentration [2, 15]: >128
Minimum inhibitory concentration [2, 16]: >128
Minimum inhibitory concentration [2, 17]: >128
Minimum inhibitory concentration [2, 18]: >128
Minimum inhibitory concentration [3, 19]: >128
Minimum inhibitory concentration [3, 20]: >128
Minimum inhibitory concentration [3, 21]: >128
Minimum inhibitory concentration [3, 22]: >128
Minimum inhibitory concentration [3, 23]: >128
Minimum inhibitory concentration [4, 24]: 128
Minimum inhibitory concentration [4, 25]: 128
Minimum inhibitory concentration [4, 26]: 128
Minimum inhibitory concentration [4, 27]: 128
Minimum inhibitory concentration [4, 28]: 64
Minimum inhibitory concentration [5, 29]: 32
Minimum inhibitory concentration [5, 30]: 32
Minimum inhibitory concentration [5, 31]: 16
Minimum inhibitory concentration [5, 32]: 16
Minimum inhibitory concentration [5, 33]: 16
Minimum inhibitory concentration ([6]; Escherichia coli strain 1): 1
Minimum inhibitory concentration ([6]; Escherichia coli strain 2): 16
Minimum inhibitory concentration ([6]; Escherichia coli strain 3): 16
Minimum inhibitory concentration ([6]; Escherichia coli strain 4): 32
Minimum inhibitory concentration ([6]; Escherichia coli strain 5): 32
Minimum inhibitory concentration [7, 34]: 64
Minimum inhibitory concentration [7, 35]: 64
Minimum inhibitory concentration [7, 36]: 128
Minimum inhibitory concentration [7, 37]: 128
Minimum inhibitory concentration [7, 38]: 32
Minimum inhibitory concentration [8, 39]: 32
Minimum inhibitory concentration [8, 40]: 64
Minimum inhibitory concentration [8, 41]: 64
Minimum inhibitory concentration [8, 42]: 64
Minimum inhibitory concentration [8, 43]: 16
Minimum inhibitory concentration (Candida albicans; [44]): 16
Minimum inhibitory concentration (Candida albicans; [45]): 16
Minimum inhibitory concentration (Candida albicans; [46]): 16
Minimum inhibitory concentration (Candida albicans; [47]): 16
Minimum inhibitory concentration (Candida albicans; [48]): 32
Minimum inhibitory concentration (C. glabrata; [49]): 16
Minimum inhibitory concentration (C. glabrata; [50]): 16
Minimum inhibitory concentration (C. glabrata; [51]): 8
Minimum inhibitory concentration (C. glabrata; [52]): 64
Minimum inhibitory concentration (C. parapsilosis; [53]): 64
Minimum inhibitory concentration (C. parapsilosis; [54]): 64
Minimum inhibitory concentration (C. parapsilosis; [55]): 32
Minimum inhibitory concentration (C. parapsilosis; [56]): 16

CC(C)C[C@@H](NC(=O)[C@H](N)CCCNC(=N)N)C(=O)N[C@H](CCCCN)C(=O)N[C@H](Cc1c[nH]c2ccccc12)C(=O)N[C@H](Cc1ccccc1)C(=O)N[C@H](Cc1c[nH]c2ccccc12)C(=O)N[C@H](CC(C)C)C(=O)N[C@H](Cc1ccccc1)C(=O)N[C@H](CCCNC(=N)N)C(=O)N[C@H](CCCCN)C(=O)N[C@H](CCCNC(=N)N)C(=O)O [Chain307D] (H-[dR][dL][dK][dW][dF][dW][dL][dF][dR][dK][dR]-OH)
Minimum inhibitory concentration (C. quillermondiae): 4
Minimum inhibitory concentration [1, 9]: 8
Minimum inhibitory concentration [1, 10]: 8
Minimum inhibitory concentration [1, 11]: 16
Minimum inhibitory concentration [1, 12]: 16
Minimum inhibitory concentration [1, 13]: 4
Minimum inhibitory concentration [2, 14]: >128
Minimum inhibitory concentration [2, 15]: >128
Minimum inhibitory concentration [2, 16]: 128
Minimum inhibitory concentration [2, 17]: >128
Minimum inhibitory concentration [2, 18]: >128
Minimum inhibitory concentration [3, 19]: >128
Minimum inhibitory concentration [3, 20]: 128
Minimum inhibitory concentration [3, 21]: 128
Minimum inhibitory concentration [3, 22]: >128
Minimum inhibitory concentration [3, 23]: >128
Minimum inhibitory concentration [4, 24]: 4
Minimum inhibitory concentration [4, 25]: 4
Minimum inhibitory concentration [4, 26]: 4
Minimum inhibitory concentration [4, 27]: 2
Minimum inhibitory concentration [4, 28]: 2
Minimum inhibitory concentration [5, 29]: 2
Minimum inhibitory concentration [5, 30]: 2
Minimum inhibitory concentration [5, 31]: 2
Minimum inhibitory concentration [5, 32]: 2
Minimum inhibitory concentration [5, 33]: 2
Minimum inhibitory concentration ([6]; Escherichia coli strain 1): 4
Minimum inhibitory concentration ([6]; Escherichia coli strain 2): 4
Minimum inhibitory concentration ([6]; Escherichia coli strain 3): 4
Minimum inhibitory concentration ([6]; Escherichia coli strain 4): 2
Minimum inhibitory concentration ([6]; Escherichia coli strain 5): 4
Minimum inhibitory concentration [7, 34]: 4
Minimum inhibitory concentration [7, 35]: 8
Minimum inhibitory concentration [7, 36]: 4
Minimum inhibitory concentration [7, 37]: 4
Minimum inhibitory concentration [7, 38]: 4
Minimum inhibitory concentration [8, 39]: 16
Minimum inhibitory concentration [8, 40]: 16
Minimum inhibitory concentration [8, 41]: 16
Minimum inhibitory concentration [8, 42]: 8
Minimum inhibitory concentration [8, 43]: 8
Minimum inhibitory concentration (Candida albicans; [44]): 16
Minimum inhibitory concentration (Candida albicans; [45]): 16
Minimum inhibitory concentration (Candida albicans; [46]): 16
Minimum inhibitory concentration (Candida albicans; [47]): 16
Minimum inhibitory concentration (Candida albicans; [48]): 16
Minimum inhibitory concentration (C. glabrata; [49]): 8
Minimum inhibitory concentration (C. glabrata; [50]): 16
Minimum inhibitory concentration (C. glabrata; [51]): 8
Minimum inhibitory concentration (C. glabrata; [52]): 16
Minimum inhibitory concentration (C. parapsilosis; [53]): 16
Minimum inhibitory concentration (C. parapsilosis; [54]): 8
Minimum inhibitory concentration (C. parapsilosis; [55]): 8
Minimum inhibitory concentration (C. parapsilosis; [56]): 8
